Structures can show the parent of a compound that is named as a salt.
Tests used:
[1] = in vivo; cited from earlier work
healthy volunteers [2] = assay: 24 h long-term infusion study: local tolerability and safety; format: in vivo, human; conditions: 24 h infusion
Description: (§1) A single centre prospective, randomized, double blind, crossover, pharmacokinetic, safety and tolerability study to compare long-term infusion administration of AOP LDLL600 against esmolol in healthy volunteers was performed.
(§2) Landiolol hydrochloride lyophilized (LDLL600) comprises 600 mg landiolol hydrochloride, 600 mg mannitol, pH 6.5. The primary packing of LDLL600 is 50 ml vial, the reconstitution volume is 50 ml and the final product concentration is 12 mg/mL landiolol HCl.
(§3) 12 subjects were administered AOP LDLL600 or Esmolol (Brevibloc, 2500 mg/250 ml) in 1:1 ratio in double-blind, randomized, cross-over setting. PK, systemic cardiovascular and local tolerability and safety of the 24 h-long term infusions of three dose levels of both IMPs during each treatment period were assessed.
(§4) Landiolol was infused over 24 h in a dose of 10 μg/KG/min (2 hrs), followed by 20 μg/KG/min (2 hrs), followed by 40 μg/KG/min for 20 hrs.
(§5) Dosing algorithm was body weight divided by 20, 10 and 5 in ml/h giving 10, 20 and 40 μg/KG/min at a concentration of 12 mg/ml. No severe adverse drug reactions, mild local reactions, 1 severe local reaction (Esmolol High Dose).
(§6) Landiolol was infused over 24 h in a dose of 10, 20 and 40 μg/KG/min, i.e. 10 μg/KG/min landiolol were administered for 2 hrs, followed by 2 hrs administration of 20 μg/KG/min and further followed by 20 hrs administration of 40 μg/KG/min.

healthy volunteers [3] = assay: 24 h long-term infusion study, AOP LDLL600 against esmolol: heart rate; format: in vivo, human
Description: as §1, §2, §3, §4, §5, §6
Post-infusion follow up measurements were performed immediately after 20 hrs administration study, i.e. 2, 4 min etc. after stop of landiolol administration.

[4] = FU Predose (end of 20 h HD, infusion stop)
[5] = FU post-infusion, 20 h 2 min (2 min after infusion stop)
[6] = FU post-infusion, 20 h 4 min (4 min after infusion stop)
[7] = FU post-infusion, 20 h 6 min (6 min after infusion stop)
[8] = FU post-infusion, 20 h 8 min (8 min after infusion stop)
[9] = FU post-infusion, 20 h 12 min (12 min after infusion stop)
[10] = FU post-infusion, 20 h 16 min (16 min after infusion stop)
[11] = FU post-infusion, 20 h 20 min (20 min after infusion stop)
[12] = FU post-infusion, 20 h 30 min (30 min after infusion stop)
[13] = FU post-infusion, 21 h (1 h after infusion stop)
[14] = FU post-infusion, 22 h (2 h after infusion stop)
[15] = FU post-infusion, 24 h (4 h after infusion stop)
[16] = FU post-infusion, 26 h (6 h after infusion stop)
[17] = HD infusion (landiolol 40, esmolol 200 μg/kg/min, after LD and MD), 2 min
[18] = HD infusion (landiolol 40, esmolol 200 μg/kg/min, after LD and MD), 3 min
[19] = HD infusion (landiolol 40, esmolol 200 μg/kg/min, after LD and MD), 4 min
[20] = HD infusion (landiolol 40, esmolol 200 μg/kg/min, after LD and MD), 6 min
[21] = HD infusion (landiolol 40, esmolol 200 μg/kg/min, after LD and MD), 8 min
[22] = HD infusion (landiolol 40, esmolol 200 μg/kg/min, after LD and MD), 12 min
[23] = HD infusion (landiolol 40, esmolol 200 μg/kg/min, after LD and MD), 16 min
[24] = HD infusion (landiolol 40, esmolol 200 μg/kg/min, after LD and MD), 20 min
[25] = HD infusion (landiolol 40, esmolol 200 μg/kg/min, after LD and MD), 30 min
[26] = HD infusion (landiolol 40, esmolol 200 μg/kg/min, after LD and MD), 60 min
[27] = HD infusion (landiolol 40, esmolol 200 μg/kg/min, after LD and MD), 90 min
[28] = HD infusion (landiolol 40, esmolol 200 μg/kg/min, after LD and MD), 2 h
[29] = HD infusion (landiolol 40, esmolol 200 μg/kg/min, after LD and MD), 4 h
[30] = HD infusion (landiolol 40, esmolol 200 μg/kg/min, after LD and MD), 8 h
[31] = HD infusion (landiolol 40, esmolol 200 μg/kg/min, after LD and MD), 12 h
[32] = HD infusion (landiolol 40, esmolol 200 μg/kg/min, after LD and MD), 16 h
[33] = HD infusion (landiolol 40, esmolol 200 μg/kg/min, after LD and MD), 20 h (end)

COC(=O)CCc1ccc(OCC(O)CNC(C)C)cc1 (stereo not drawn) [Esmolol, Esmolol hydrochloride]
alpha-distribution half-life [1]: approximately 2 minutes | total body clearance relative to cardiac output [1]: ~3 times | total body clearance relative to hepatic blood flow [1]: ~14 times | local reactions (percent of subjects) (healthy volunteers [2]; three dose levels): 50.0% | local reactions (subjects/total) (healthy volunteers [2]; three dose levels): 7/14 | severe local reaction (number) (healthy volunteers [2]; Esmolol High Dose (200 μg/kg/min)): 1 | change of heart rate from predose, Mean (SD) (healthy volunteers [3]; [4]): 1.5 (9.05) beats per minute | heart rate, Mean (SD) (healthy volunteers [3]; [4]): 69.1 (6.40) beats per minute | change of heart rate from predose, Mean (SD) (healthy volunteers [3]; [5]): 1.4 (7.57) beats per minute | heart rate, Mean (SD) (healthy volunteers [3]; [5]): 69.0 (4.88) beats per minute | change of heart rate from predose, Mean (SD) (healthy volunteers [3]; [6]): 3.6 (8.77) beats per minute | heart rate, Mean (SD) (healthy volunteers [3]; [6]): 71.3 (7.04) beats per minute | change of heart rate from predose, Mean (SD) (healthy volunteers [3]; [7]): 5.4 (8.11) beats per minute | heart rate, Mean (SD) (healthy volunteers [3]; [7]): 73.1 (7.89) beats per minute | change of heart rate from predose, Mean (SD) (healthy volunteers [3]; [8]): 5.4 (8.10) beats per minute | heart rate, Mean (SD) (healthy volunteers [3]; [8]): 73.1 (7.57) beats per minute | change of heart rate from predose, Mean (SD) (healthy volunteers [3]; [9]): 7.1 (8.43) beats per minute | heart rate, Mean (SD) (healthy volunteers [3]; [9]): 74.7 (8.62) beats per minute | change of heart rate from predose, Mean (SD) (healthy volunteers [3]; [10]): 6.4 (7.44) beats per minute | heart rate, Mean (SD) (healthy volunteers [3]; [10]): 74.0 (7.99) beats per minute | change of heart rate from predose, Mean (SD) (healthy volunteers [3]; [11]): 6.8 (7.17) beats per minute | heart rate, Mean (SD) (healthy volunteers [3]; [11]): 74.4 (7.04) beats per minute | change of heart rate from predose, Mean (SD) (healthy volunteers [3]; [12]): 9.1 (8.04) beats per minute | heart rate, Mean (SD) (healthy volunteers [3]; [12]): 76.8 (8.51) beats per minute | change of heart rate from predose, Mean (SD) (healthy volunteers [3]; [13]): 5.5 (8.15) beats per minute | heart rate, Mean (SD) (healthy volunteers [3]; [13]): 73.1 (7.50) beats per minute | change of heart rate from predose, Mean (SD) (healthy volunteers [3]; [14]): 2.6 (8.02) beats per minute | heart rate, Mean (SD) (healthy volunteers [3]; [14]): 70.2 (7.06) beats per minute | change of heart rate from predose, Mean (SD) (healthy volunteers [3]; [15]): 4.5 (9.51) beats per minute | heart rate, Mean (SD) (healthy volunteers [3]; [15]): 72.1 (7.37) beats per minute | change of heart rate from predose, Mean (SD) (healthy volunteers [3]; [16]): 5.1 (10.85) beats per minute | heart rate, Mean (SD) (healthy volunteers [3]; [16]): 72.8 (9.74) beats per minute | change of heart rate from predose, Mean (SD) (healthy volunteers [3]; HD Predose (end of 2 h MD)): −3.9 (7.75) beats per minute | heart rate, Mean (SD) (healthy volunteers [3]; HD Predose (end of 2 h MD)): 63.7 (4.86) beats per minute | change of heart rate from predose, Mean (SD) (healthy volunteers [3]; [17]): −2.5 (8.96) beats per minute | heart rate, Mean (SD) (healthy volunteers [3]; [17]): 65.1 (7.10) beats per minute | change of heart rate from predose, Mean (SD) (healthy volunteers [3]; [18]): −3.2 (8.99) beats per minute | heart rate, Mean (SD) (healthy volunteers [3]; [18]): 64.4 (4.38) beats per minute | change of heart rate from predose, Mean (SD) (healthy volunteers [3]; [19]): −3.1 (8.16) beats per minute | heart rate, Mean (SD) (healthy volunteers [3]; [19]): 64.5 (4.74) beats per minute | change of heart rate from predose, Mean (SD) (healthy volunteers [3]; [20]): −2.8 (8.97) beats per minute | heart rate, Mean (SD) (healthy volunteers [3]; [20]): 64.9 (4.29) beats per minute | change of heart rate from predose, Mean (SD) (healthy volunteers [3]; [21]): −3.7 (10.45) beats per minute | heart rate, Mean (SD) (healthy volunteers [3]; [21]): 63.9 (7.14) beats per minute | change of heart rate from predose, Mean (SD) (healthy volunteers [3]; [22]): −2.9 (9.19) beats per minute | heart rate, Mean (SD) (healthy volunteers [3]; [22]): 64.8 (4.39) beats per minute | change of heart rate from predose, Mean (SD) (healthy volunteers [3]; [23]): −3.3 (8.32) beats per minute | heart rate, Mean (SD) (healthy volunteers [3]; [23]): 64.4 (7.16) beats per minute | change of heart rate from predose, Mean (SD) (healthy volunteers [3]; [24]): −0.4 (11.69) beats per minute | heart rate, Mean (SD) (healthy volunteers [3]; [24]): 67.3 (7.26) beats per minute | change of heart rate from predose, Mean (SD) (healthy volunteers [3]; [25]): −2.3 (9.26) beats per minute | heart rate, Mean (SD) (healthy volunteers [3]; [25]): 65.4 (5.69) beats per minute | change of heart rate from predose, Mean (SD) (healthy volunteers [3]; [26]): 4.9 (9.60) beats per minute | heart rate, Mean (SD) (healthy volunteers [3]; [26]): 72.6 (6.64) beats per minute | change of heart rate from predose, Mean (SD) (healthy volunteers [3]; [27]): 5.9 (8.95) beats per minute | heart rate, Mean (SD) (healthy volunteers [3]; [27]): 73.6 (4.57) beats per minute | change of heart rate from predose, Mean (SD) (healthy volunteers [3]; [28]): 6.2 (9.32) beats per minute | heart rate, Mean (SD) (healthy volunteers [3]; [28]): 73.9 (4.55) beats per minute | change of heart rate from predose, Mean (SD) (healthy volunteers [3]; [29]): 2.8 (9.60) beats per minute | heart rate, Mean (SD) (healthy volunteers [3]; [29]): 70.4 (5.03) beats per minute | change of heart rate from predose, Mean (SD) (healthy volunteers [3]; [30]): 0.3 (10.34) beats per minute | heart rate, Mean (SD) (healthy volunteers [3]; [30]): 67.9 (5.95) beats per minute | change of heart rate from predose, Mean (SD) (healthy volunteers [3]; [31]): 0.7 (10.94) beats per minute | heart rate, Mean (SD) (healthy volunteers [3]; [31]): 68.4 (8.30) beats per minute | change of heart rate from predose, Mean (SD) (healthy volunteers [3]; [32]): 0.3 (9.27) beats per minute | heart rate, Mean (SD) (healthy volunteers [3]; [32]): 67.9 (7.49) beats per minute | change of heart rate from predose, Mean (SD) (healthy volunteers [3]; [33]): 1.5 (9.05) beats per minute | heart rate, Mean (SD) (healthy volunteers [3]; [33]): 69.1 (6.40) beats per minute | change of heart rate from predose, Mean (SD) (healthy volunteers [3]; LD infusion (landiolol 10, esmolol 50 μg/kg/min), 2 min): −0.7 (6.22) beats per minute

Reference: patent publication US10722516B2, “Use of landiolol hydrochloride in the long-term treatment of tachyarrhythmias” (AOP Orphan Pharmaceuticals AG, priority 2013, dated 2020)
